The record followed here is patent US9045461B2, “Phenyl-heteroaryl derivatives and methods of use thereof” (TransTech Pharma, LLC, priority 2010, dated 2015).

The IC50 is the point on the concentration scale where inhibition reaches its midpoint.

Where a name gives a salt, the structure may show the parent alone.

The target in one experiment is T1, sRAGE binding to S100b (Homo sapiens, UniProt Q15109).
T1 construct: extracellular domain can be isolated by proteolysis of RAGE to generate soluble RAGE (sRAGE) comprised of the V and C domains
T1 sequence (Q15109 23-342 limits assumed): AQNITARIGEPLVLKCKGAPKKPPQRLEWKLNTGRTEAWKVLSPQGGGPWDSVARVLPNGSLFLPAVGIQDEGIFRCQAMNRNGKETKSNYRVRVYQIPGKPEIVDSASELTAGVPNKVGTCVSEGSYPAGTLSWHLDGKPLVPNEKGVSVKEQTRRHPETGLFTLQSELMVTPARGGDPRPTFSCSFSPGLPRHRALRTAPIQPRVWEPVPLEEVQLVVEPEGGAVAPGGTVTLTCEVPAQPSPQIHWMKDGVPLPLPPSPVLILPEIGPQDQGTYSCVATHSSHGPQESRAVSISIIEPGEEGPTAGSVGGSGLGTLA
Kind of experiment: RAGE binding assay (ELISA), S100b as the RAGE ligand. The following applies: compounds tested in hydrochloride salt form, concentration at which 50% signal has been inhibited. The procedure:
(§1) The following assay method may be used to identify compounds of Formula (I) or pharmaceutically acceptable salts thereof which are useful as inhibitors of binding of physiological RAGE ligands, such as S100b and β-amyloid, to RAGE.
(§2) S100b, β-amyloid, or CML (500 ng/100 μL/well) in 100 mM sodium bicarbonate/sodium carbonate buffer (pH 9.8) is loaded onto the wells of a NUNC Maxisorp flat bottom 96-well microtitre plate. The plate is incubated at 4° C. overnight. The wells are aspirated and treated with 50 mM imidazole buffer saline (pH 7.2) (with 5 mM CaCl2/MgCl2) containing 1% bovine serum albumin (BSA) (300 μL/well) for 1 h at RT. The wells are aspirated.
(§3) Test compounds are dissolved in nanopure water (concentration: 10-100 μM). DMSO may be used as co-solvent. 25 μL of test compound solution in 4% DMSO is added, along with 75 μL sRAGE (6 nM FAC) to each well and samples are incubated for 1 h at 37° C. The wells are washed several times with 155 mM NaCl pH 7.2 buffer saline and are soaked for several seconds between each wash.
(§4) Non-radioactive detection is performed by adding:
(§5) 10 μL Biotinylated goat F(ab′)2 Anti-mouse IgG. (8.0×10-4 mg/mL, FAC), 5 μL Alk-phos-Streptavidin (3×10-3 mg/mL FAC), 0.42 μL per 5 mL Monoclonal antibody for sRAGE (FAC 6.0×10-3 mg/mL) to 5 mL 50 mM imidazole buffer saline (pH 7.2) containing 0.2% bovine serum albumin and 5 mM CaCl2. The mixture is incubated for 30 minutes at RT.
(§6) 100 μL of complex is added to each well and incubation is allowed to proceed at rt for 1 h. Wells are washed several times with wash buffer and soaked several seconds between each wash. 100 μL 1 mg/mL (pNPP) in 1 M diethanolamine (pH adjusted to 9.8 with HCl) is added. Color is allowed to develop in the dark for 30 min to 1 h at rt. The reaction is quenched with 10 μL of stop solution (0.5-1.0 N NaOH in 50% ethanol) and the absorbance is measured spectrophotometrically with a microplate reader at 405 nm.
(§7) The IC50 (μM) value in the ELISA assay represents the concentration of compound at which 50% signal has been inhibited.

The target in experiment [1] is T2, sRAGE binding to β-amyloid (Homo sapiens, UniProt Q15109).
T2 construct: extracellular domain can be isolated by proteolysis of RAGE to generate soluble RAGE (sRAGE) comprised of the V and C domains
T2 sequence (Q15109 23-342 limits assumed): as above
The experiment in a line: RAGE binding assay (ELISA), β-amyloid as the RAGE ligand. The following applies: compounds tested in hydrochloride salt form, concentration at which 50% signal has been inhibited. The procedure:
as §1, §2, §3, §4, §5, §6, §7
A general note: In an ELISA, binding on a coated surface is turned into a signal by an enzyme label.

Turning to `CCCCc1nnc(C(=O)N(C2CC2)C2CCN(C)CC2)cc1-c1ccc(OC2CCCCC2)cc1` [Example 115, 6-Butyl-5-(4-cyclohexyloxy-phenyl)-pyridazine-3-carboxylic acid cyclopropyl-(1-methyl-piperidin-4-yl)-amide dihydrochloride], the IC50 is 1120 nM at sRAGE binding to S100b and 1000 nM in experiment [1].

Turning to `CCCCc1nnc(OC2CCN(C)CC2)cc1-c1ccc(OC2CCCCC2)c(-c2cnn(C)c2)c1` [Example 69, 3-Butyl-4-[4-cyclohexyloxy-3-(1-methyl-1H-pyrazol-4-yl)-phenyl]-6-(1-methyl-piperidin-4-yloxy)-pyridazine dihydrochloride], the IC50 on sRAGE binding to S100b was 730 nM; in experiment [1], 790 nM.

In the case of `CCCCc1nnc(O[C@@H]2CCN(C)C2)cc1-c1ccc(OC2CCCCC2)cc1` [Example 29, 3-Butyl-4-(4-cyclohexyloxy-phenyl)-6-((R)-1-methyl-pyrrolidin-3-yloxy)-pyridazine dihydrochloride], the IC50 is 1720 nM at sRAGE binding to S100b and 2360 nM in experiment [1].

`CCCCc1nnc(OCC2CCN(C)C2)cc1-c1ccc(OCc2ccccc2)cc1` (stereo not drawn) [Example 10, 4-(4-Benzyloxy-phenyl)-3-butyl-6-(1-methyl-pyrrolidin-3-ylmethoxy)-pyridazine dihydrochloride]: the IC50 amounted to 1520 nM at sRAGE binding to S100b and 1630 nM in experiment [1].

As for `CCCCc1nnc(OC2CCN(C)CC2)cc1-c1ccc(OC(C)C)cc1` [Example 49, 3-Butyl-4-(4-isopropoxy-phenyl)-6-(1-methyl-piperidin-4-yloxy)-pyridazine dihydrochloride], the half-maximal inhibitory concentration (IC50) on sRAGE binding to S100b was found to be 3940 nM; in experiment [1], 6260 nM.

Consider `CCCCc1nnc(OC2CCN(C)CC2)cc1-c1ccc(OC2CCCCC2)c(-c2nnn(C)n2)c1` [Example 79, 3-Butyl-4-[4-cyclohexyloxy-3-(2-methyl-2H-tetrazol-5-yl)-phenyl]-6-(1-methyl-piperidin-4-yloxy)-pyridazine dihydrochloride], for which the IC50 came out at 1470 nM at sRAGE binding to S100b and 1490 nM in experiment [1].

Consider `CN1CCC(Oc2cc(-c3ccc(OC4CCCCC4)cc3)c(C3CC3)nn2)CC1` [Example 59, 4-(4-cyclohexyloxy-phenyl)-3-cyclopropyl-6-(1-methyl-piperidin-4-yloxy)-pyridazine dihydrochloride], for which the IC50 on sRAGE binding to S100b was found to be 4790 nM; in experiment [1], 3160 nM.

As for `CCCCc1nnc(OC2CCN(C)CC2CO)cc1-c1ccc(OC2CCCCC2)cc1` (stereo not drawn) [Example 38, {4-[6-Butyl-5-(4-cyclohexyloxy-phenyl)-pyridazin-3-yloxy]-1-methyl-piperidin-3-yl}-methanol dihydrochloride], the IC50 was determined as 2620 nM at sRAGE binding to S100b and 2470 nM in experiment [1].

`CCCCc1nnc(O[C@H]2CC[C@H](NC)CC2)cc1-c1ccc(OC2CCCCC2)cc1` [Example 37, {4-[6-Butyl-5-(4-cyclohexyloxy-phenyl)-pyridazin-3-yloxy]-cyclohexyl}-methyl-amine dihydrochloride]: the IC50 on sRAGE binding to S100b is 1870 nM; in experiment [1] it was 1650 nM.

Regarding `CCCCc1nnc(OC2CCN(C)CC2)cc1-c1ccc(OC2CCCCC2)c(-c2cnn(CCOC)c2)c1` [Example 78, 3-Butyl-4-{4-cyclohexyloxy-3-[1-(2-methoxy-ethyl)-1H-pyrazol-4-yl]-phenyl}-6-(1-methyl-piperidin-4-yloxy)-pyridazine dihydrochloride], the IC50 turned out to be 500 nM at sRAGE binding to S100b and 1160 nM in experiment [1].

On to `CCCCc1nnc(C(=O)N[C@@H]2CCN(C)C[C@@H]2OC)cc1-c1ccc(OC2CCCCC2)cc1` (stereo in doubt) [Example 107, 6-Butyl-5-(4-cyclohexyloxy-phenyl)-pyridazine-3-carboxylic acid (3-methoxy-1-methyl-piperidin-4-yl)-amide dihydrochloride], for which the IC50 at sRAGE binding to S100b was 970 nM; in experiment [1], 560 nM.

As for `CCCCc1nnc(C(=O)N[C@H]2CN3CCC2CC3)cc1-c1ccc(OC2CCCCC2)cc1` [Example 86, (R)-6-Butyl-5-(4-cyclohexyloxy-phenyl)-pyridazine-3-carboxylic acid (1-aza-bicyclo[2.2.2]oct-3-yl)-amide dihydrochloride], the IC50 at sRAGE binding to S100b amounted to 1920 nM; in experiment [1], 1020 nM.

In the case of `CCCCc1nnc(OC2CCN(CCC(=O)N(C)C)CC2)cc1-c1ccc(OC2CCCCC2)cc1` [Example 16, 3-{4-[6-Butyl-5-(4-cyclohexyloxy-phenyl)-pyridazin-3-yloxy]-piperidin-1-yl}-N,N-dimethyl-propionamide dihydrochloride], the IC50 on sRAGE binding to S100b worked out at 2170 nM; in experiment [1], 2070 nM.

In the case of `CCCCc1nnc(OC[C@@H]2CCCN3CCCC[C@H]23)cc1-c1ccc(OC2CCCCC2)cc1` [Example 28, (1R,9aR)-1-[6-Butyl-5-(4-cyclohexyloxy-phenyl)-pyridazin-3-yloxymethyl]-octahydroquinolizine dihydrochloride], the results for the half-maximal inhibitory concentration (IC50) (on sRAGE binding to S100b; in experiment [1]) were 1750 nM and 1660 nM, respectively.

Consider `CCCCc1nnc(OC2CCN(CCC(=O)OCC)CC2)cc1-c1ccc(OC2CCCCC2)cc1` [Example 15, 3-{4-[6-Butyl-5-(4-cyclohexyloxy-phenyl)-pyridazin-3-yloxy]-piperidin-1-yl}-propionic acid ethyl ester dihydrochloride], for which the IC50 on sRAGE binding to S100b worked out at 640 nM; in experiment [1] it was 660 nM.

As to `CCCCc1nnc(C(=O)NC2CCN(C)CC2)cc1-c1ccc(OC2CCCCC2)cc1` [Example 84, 6-Butyl-5-(4-cyclohexyloxy-phenyl)-pyridazine-3-carboxylic acid (1-methyl-piperidin-4-yl)-amide dihydrochloride], the values for the 50% inhibitory concentration (IC50) (at sRAGE binding to S100b; in experiment [1]) were 1560 nM and 1960 nM, respectively.

With `CCCCc1nnc(OC[C@H]2CN(C)C[C@@H]2COC)cc1-c1ccc(OCc2ccccc2)cc1` (racemic) [Example 7, (±)-trans-4-(4-Benzyloxy-phenyl)-3-butyl-6-(4-methoxymethyl-1-methyl-pyrrolidin-3-ylmethoxy)-pyridazine dihydrochloride], the IC50 on sRAGE binding to S100b came to 2330 nM; in experiment [1], 1520 nM.

Consider `CCCCc1nnc(OC[C@H]2CN(C)CC[C@@H]2O)cc1-c1ccc(OC2CCCCC2)cc1` (racemic) [Example 47, (±)-trans-3-[6-Butyl-5-(4-cyclohexyloxy-phenyl)-pyridazin-3-yloxymethyl]-1-methyl-piperidin-4-ol dihydrochloride], for which the IC50 at sRAGE binding to S100b was found to be 2930 nM; in experiment [1] it was 2500 nM.

Take `CCCCc1nnc(OC[C@H]2CCN(C)C[C@@H]2O)cc1-c1ccc(OC2CCCCC2)cc1` (racemic) [Example 25, (±)-trans-4-[6-Butyl-5-(4-cyclohexyloxy-phenyl)-pyridazin-3-yloxymethyl]-1-methyl-piperidin-3-ol dihydrochloride]: the IC50 at sRAGE binding to S100b was 1370 nM; in experiment [1], 1540 nM.

Turning to `CCCCc1nnc(OC2CCN(C)CC2)cc1-c1ccc(OCc2ccc(Cl)cc2)cc1` [Example 50, 3-butyl-4-[4-(4-chloro-benzyloxy)-phenyl]-6-(1-methyl-piperidin-4-yloxy)-pyridazine dihydrochloride], the IC50 on sRAGE binding to S100b was 1420 nM; in experiment [1] it was 1960 nM.

As to `CCCCc1nnc(OC[C@H]2CN(C)CC[C@H]2OC)cc1-c1ccc(OC2CCCCC2)cc1` (racemic) [Example 44, (±)-cis-3-Butyl-4-(4-cyclohexyloxy-phenyl)-6-(4-methoxy-1-methyl-piperidin-3-ylmethoxy)-pyridazine dihydrochloride], the IC50 at sRAGE binding to S100b stood at 480 nM; in experiment [1], 320 nM.

On to `CCCCc1nnc(OCC2CN(C)CCC2(F)F)cc1-c1ccc(OC2CCCCC2)cc1` (stereo not drawn) [Example 39, 3-Butyl-4-(4-cyclohexyloxy-phenyl)-6-(4,4-difluoro-1-methyl-piperidin-3-ylmethoxy)-pyridazine dihydrochloride], for which the results for the IC50 (at sRAGE binding to S100b; in experiment [1]) were 1220 nM and 1500 nM, respectively.

On to `CCCCc1nnc(C(=O)NC2CC3CCC(C2)N3C)cc1-c1ccc(OC2CCCCC2)cc1` (stereo not drawn) [Example 96, 6-Butyl-5-(4-cyclohexyloxy-phenyl)-pyridazine-3-carboxylic acid (8-methyl-8-aza-bicyclo[3.2.1]oct-3-yl)-amide dihydrochloride], for which the IC50 at sRAGE binding to S100b came to 1160 nM; in experiment [1] it was 940 nM.

In the case of `CCCCc1nnc(OC2CCN(C)CC2)cc1-c1ccc(OC2CCCCC2)c(N2CCCS2(=O)=O)c1` [Example 75, 3-Butyl-4-[4-cyclohexyloxy-3-(1,1-dioxo-1lambda*6*-isothiazolidin-2-yl)-phenyl]-6-(1-methyl-piperidin-4-yloxy)-pyridazine dihydrochloride], the IC50 at sRAGE binding to S100b came out at 2190 nM; in experiment [1], 2850 nM.
